Results as given in publication doi:10.1101/2025.11.04.686469, “Discovery of Host-Directed Small Molecules with Broad Anti-Leishmanial Efficacy” (bioRxiv, 2025).
pIC50: −log10 of the molar value. Like-named read-outs stand apart in the source and are kept apart here.

Key:
[1] = tested on: intracellular L. donovani amastigotes; test: Image-based (Giemsa staining) evaluation of intracellular anti-leishmanial activity in bone marrow derived macrophages; format: cell-based, Leishmania donovani; conditions: Leishmania donovani, Macrophage
Method: Bone marrow derived macrophages (BMDMs) were isolated from BALB/c mice and cultured as previously described. […] Completely differentiated BMDMs are obtained after 7 days of culture with media change every 2 days. Harvested cells were seeded onto 10 mm glass cover slips at 5 x 10^5 cells/ well of a 24 well plate in DMEM media (without LCM) and allowed to adhere overnight. […] After infection, cells were washed three times with fresh media to remove extracellular promastigotes and treated with compounds for a 72-hour incubation. BMDM cells were then washed with phosphate buffered saline, fixed with ice-cold methanol, and stained with Giemsa (5% v/v in water). The cover slips with stained cells are mounted onto glass slides and imaged on EVOS XL (100X, Thermo Fisher Scientific). Leishmania amastigotes per 100 macrophages were determined in a blinded manner.

[2] = tested on: intracellular L. mexicana amastigotes; test: microbe, parasite or virus in culture; format: cell-based, Leishmania mexicana; conditions: bone marrow derived macrophages, Giemsa staining
Method: Bone marrow derived macrophages (BMDMs) were isolated from BALB/c mice and cultured as previously described. Briefly, bone marrow was harvested from long bones of mice and the isolated cells were seeded at a concentration of 2 x 10^6 cells/mL in petri dishes with RPMI media supplemented with 10% FBS, 1% Penn-Strep and 10% L929 conditioned media (LCM). Completely differentiated BMDMs are obtained after 7 days of culture with media change every 2 days. Harvested cells were seeded onto 10 mm glass cover slips at 5 x 10^5 cells/ well of a 24 well plate in DMEM media (without LCM) and allowed to adhere overnight. BMDM cells are then infected overnight with LV82 L. donovani or L. mexicana (NR-51210) at a multiplicity of infection of 10. After infection, cells were washed three times with fresh media to remove extracellular promastigotes and treated with compounds for a 72-hour incubation. BMDM cells were then washed with phosphate buffered saline, fixed with ice-cold methanol, and stained with Giemsa (5% v/v in water). The cover slips with stained cells are mounted onto glass slides and imaged on EVOS XL (100X, Thermo Fisher Scientific). Leishmania amastigotes per 100 macrophages were determined in a blinded manner.

[3] = biological target: T1, lysozyme (Homo sapiens, UniProt P61626); test: Thermal proteome profiling in Leishmania infected macrophage lysate; format: binding; conditions: ligand 100 μM
T1 construct: endogenous in cells; host or cells: THP-1 cells differentiated with PMA and infected with L. mexicana promastigotes; cell lysate
T1 sequence (P61626 19-148): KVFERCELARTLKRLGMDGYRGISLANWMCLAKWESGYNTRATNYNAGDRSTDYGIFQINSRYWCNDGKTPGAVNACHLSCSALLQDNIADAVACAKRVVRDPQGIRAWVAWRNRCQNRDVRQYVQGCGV
Method: To generate cell lysate, ten million THP-1 cells were plated overnight in a 10cm dish, then differentiated with 150 nM phorbol 12-myristate 13-acetate (PMA) for 72 hours. The resulting macrophages were infected with L. mexicana promastigotes at a multiplicity of infection of 10 and incubated for 18 hours. After infection, cells were washed three times with PBS to remove extracellular promastigotes. Cells were then collected by scraping and pelleted with centrifugation. The cell pellet was resuspended in phosphate buffered saline and subjected to five freeze-thaw cycles. Samples were centrifuged 14,000g x 10 minutes to remove cellular debris. Protein concentration of supernatant was determined by BCA assay and cell lysate was stored at −80 °C until further use.
The cell lysate was divided into two portions. One portion was spiked with the 197 ligand in DMSO to generate the with ligand sample; and the other portion was spiked with DMSO to generate the without ligand sample. The final concentration of […] in the with ligand sample was 100 μM, and both the without and with ligand samples contained 1% DMSO. The with and without samples were each subjected five replicate one-pot TPP analyses like that previously described.[20–22] […]

## O=C(CNCc1cccc(F)c1)Nc1ccc(-n2cc(C(F)(F)F)nc2-c2ccc(-c3ccc(C(F)(F)F)cc3)cc2)cc1 [Compound 197]
[1]; 72 h, Giemsa staining, 72-hour incubation, read-out: Intracellular L. donovani amastigotes IC50
  pIC50: 5.96
[1]; Giemsa staining (Table 3), read-out: L. donovani Intracellular amastigotes IC50
  pIC50: > 5.70
[2]; Leishmania mexicana, Macrophage
  pIC50: > 5.70
[2]
  pIC50: 5.77
[3]
  TPP z-score for lysozyme: 4.32
